Data set [1] relates to mouse endothelial cell line MAE. As to the kind of experiment: Cytotoxicity of baboon serum against MAE cells with exogenously added αGal pentasaccharide. The format is cell-based. The protocol:
FIG. 4 Cytotoxicity of serum from a baboon receiving αGal pentasaccharide (αGal-LNnT) intravenously. Shaded circles represent cytotoxicity of serum as recovered from baboon against mouse endothelial cell line MAE. Other lines indicate varying concentrations of exogenously added αGal-pentasaccharide into cytotoxicity assay. Added concentrations of the αGal pentasaccharide are depicted as follows: 2.0 mM, open circle; 1.0 mM, ×; 0.5 mM, diamond; and 0.25 mM, open square. […] Sera were incubated with serial dilutions of αGal oligosaccharides at 37° C. for 1 hour, then added to αGal-expressing monolayers (pig kidney cells, PK-15) in Terasaki plates for 1 hour at 37° C. Cytotoxicity was mediated by either endogenous complement, or the sera were de-complemented (heat inactivated for 30 minutes at 56° C.) and exogenous (rabbit) complement was added. After washing away excess serum, the viable dye mix "live-dead" (calcein AM/ethidium homodimer (Molecular Probes Inc., Eugene Oreg.)) was added and monolayers were scored for viability by fluorescence microscopy. Three Baboons were outfitted with indwelling venous and arterial catheters to the femoral vessels, and held in place with the aid of a jacket. Oligosaccharides were administered through the catheter in a 15 minute continuous infusion.

The test system of data set [2] is anti-αGal antibody. As to the kind of experiment: In vivo blood serum analysis: serum anti-αGal antibody neutralizing capacity in baboons. Particulars: monovalent oligosaccharide. More on the design: species or system baboon. An excerpt:
Pharmokinetics of αGal trisaccharides and αGal pentasaccharides in baboons. This example presents a study of the pharmokinetic profile and serum anti-αGal antibody neutralizing capacity in baboons of αGal trisaccharides and αGal pentasaccharides and previews the compounds' suitability for use in the prevention of hyperacute rejection of porcine organs xenotransplanted into baboons.
Three Baboons were outfitted with indwelling venous and arterial catheters to the femoral vessels, and held in place with the aid of a jacket. Oligosaccharides were administered through the catheter in a 15 minute continuous infusion.

In data set [3] the test system is anti-αGal IgG and IgM antibodies. Put plainly: In vitro mouse laminin ELISA: soluble oligosaccharides as neutralizers of anti-αGal antibodies. The format is binding. Particulars: serum pre-incubated with oligosaccharide 1 hour 37° C.; result in words. An excerpt: In vitro laminin ELISA evaluation of αGal oligosaccharides as neutralizers of anti-αGal antibodies. Mouse laminin is a basement membrane glycoprotein that expresses 50-70 oligosaccharides terminating in Galα1-3Gal, i.e., the αGal motif (Arumugham et al., 1986, Biochem. Biophys. Aeta 883:112). In this assay, immobilization of mouse laminin on microtiter plates serves as a capture ligand for anti-αGal antibodies. […] The example provides a method by which to determine the ability of αGal oligosaccharides and pharmaceutically acceptable derivative of the invention to bind to anti-αGal antibodies and to thereby remove these antibodies from the serum, neutralize anti-αGal antibodies, and/or target anti-αGal directed complement-mediated lytic attack to specific tissue or cell types. The example also provides a method by which the effectiveness of the methods of the invention can be evaluated and dosages determined.
Sera were mixed with serial dilutions of αGal oligosaccharides (αGal-CHO) at 37° C. for 1 hour, then added to mouse laminin-coated microtiter plates and incubated for 1 hour to allow binding. The microtiter plates were coated with 20 μg/mL mouse laminin in 50 mM NaHCO3 buffer, pH 9.5 at 4° C. overnight, blocked with SuperBlock solution (Pierce) for 2 hours, and then washed 3 times with SuperBlock solution. After washing excess serum away, bound IgG and IgM was measured by adding goat anti-human IgG (or IgM) conjugated to alkaline phosphatase and incubating for 1 hour, washing, and adding substrate (pNPP).
Background: In an ELISA, binding on a coated surface is turned into a signal by an enzyme label.

Data set [4] concerns anti-αGal antibody. Put plainly: ELISA of reactive anti-αGal antibody in sera of xenotransplanted baboons. The format is binding, baboon. Conditions: period during which serum concentration exceeded 1 mM; data not shown. The protocol:
The two xenotransplant baboons were outfitted with an indwelling catheter to the femoral vein to infuse compound and a catheter to the femoral artery for blood sampling. Following the transplant procedure, but just prior to providing circulatory access to the xenograft, the oligosaccharide was administered by i.v. pump through the catheter in a 15 min loading dose, followed by continuous 4 hour infusion to achieve 2.5 mM blood concentration (as determined by calculations presented in Table 2). […] Blood specimens collected for plasma were immediately centrifuged and the plasma withdrawn and stored frozen at -20° C. Blood specimens collected for serum were clotted at 4° C. overnight and the withdrawn serum frozen at -20° C. The αGal pentasaccharide was prepared according to the enzymatic methods set forth in example 6.2 and stored as a dry, white, solid powder. The oligosaccharide was dissolved in 250 mL sterile infusion grade saline to a concentration of 0.154 g/mL, or 177 mM. Induction anesthesia was with ketamine hydrochloride 5 mg/kg/body weight in and 0.5 mg/kg of xylazine iv. Intravenous fluid of approximately 20 ml/kg body weight was given during the course of the operative procedure through either a peripheral or central vein. Atropine 0.5 mg/kg was given iv. […] Arterial pressure was monitored in the recipient baboon by intermittent automatic cuff recordings. […]

Bounds are passed on as bounds.

As to `CC(=O)N[C@H]1[C@H](O[C@H]2[C@@H](O)[C@@H](CO)O[C@@H](O[C@H]3[C@H](O)[C@@H](O)C(O)O[C@@H]3CO)[C@@H]2O)O[C@H](CO)[C@@H](O[C@@H]2O[C@H](CO)[C@H](O)[C@H](O[C@H]3O[C@H](CO)[C@H](O)[C@H](O)[C@H]3O)[C@H]2O)[C@@H]1O` (some centres unmarked) [αGal pentasaccharide, Galα1-3Galβ1-4GlcNAcβ1-3Galβ1-4Glc], the “Inhibition of MAE cell cytotoxicity, in words” value in data set [1] (baboon serum (FIG. 4), similar results with pig PK15 cells) is reported as “fully inhibits MAE cell cytotoxicity”. The “Concentration of αGal pentasaccharide that inhibits serum cytotoxicity of MAE cells” value in data set [1] (baboon serum, exogenously added oligosaccharide (FIG. 4)) is “greater than 1 mM”. For the same compound, the “Minimal serum (circulating) concentration required to inhibit hyperacute rejection / be efficacious in vivo” value in data set [2] is recorded as at least 1 mM. The “Inhibition of anti-αGal IgG and IgM antibody binding to immobilized mouse laminin” value in data set [3] was “slightly better inhibitor of both IgG and IgM binding to laminin than αGal disaccharide”. Moreover, the “Reactive anti-αGal antibody titer by ELISA (mouse laminin, α-Gal-albumin neoglycoconjugates, PK-15 cells)” value in data set [4] is recorded as “pronounced reduction in the anti-αGal antibody titer”.

The values are drawn from US6096725A, “Methods of using αGal oligosaccharides as immune system targeting agents” (Neose Technologies, Inc., priority 1997, dated 2000).
